Laboratory results: patent US20090149427A1, “PHARMACEUTICALLY ACCEPTABLE SALTS AND HYDRATES OF RISEDRONIC ACID” (Pliva Hrvatska d.o.o., priority 2005, published 2009)

Details: humidity range 0-90% RH at 25° C., over a time period of 1200 minutes, FIG. 7
Protocol: FIG. 7: Izotherm diagram for tri-sodium risedronate dihydrate showing the sorption and desorption isotherm for tri-sodium risedronate dihydrate measured in a humidity range from 0-90% RH at 25° C. at DVS 1 (Surface Measurement System).

## O.O.O=P([O-])([O-])C(O)(Cc1cccnc1)P(=O)([O-])O.[Na+].[Na+].[Na+] [tri-sodium risedronate dihydrate]
  hygroscopicity (water absorption when humidity is raised): absorbs a minimum quantity of water
